Paper PMC3375280 (PLoS ONE, 2012)
Substitutions are numbered along the chain they refer to.

Assays:
[1] = molecular target: T1, AT1 A106G mutant receptor (Rattus norvegicus, UniProt P25095, A106G); experiment: competition binding, A106G mutant; details: for Kd ratio relative to WT (in parentheses): A106G / WT; for Kd: A106G, COS1 membranes, read-out: Binding affinity (Kd)
T1 construct: expressed in transfected cells; host or cells: COS1
T1 sequence (P25095 1-359 A106G): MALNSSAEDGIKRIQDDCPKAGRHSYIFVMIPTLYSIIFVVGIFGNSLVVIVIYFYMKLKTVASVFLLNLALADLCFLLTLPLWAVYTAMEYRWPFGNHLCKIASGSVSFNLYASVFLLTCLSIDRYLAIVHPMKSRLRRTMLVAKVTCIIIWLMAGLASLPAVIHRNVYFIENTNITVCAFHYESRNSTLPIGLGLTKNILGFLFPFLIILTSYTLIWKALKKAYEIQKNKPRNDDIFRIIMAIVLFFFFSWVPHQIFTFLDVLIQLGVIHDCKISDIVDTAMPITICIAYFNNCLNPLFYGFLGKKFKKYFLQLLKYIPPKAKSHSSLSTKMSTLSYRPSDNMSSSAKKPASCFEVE
Description: The Kd and Bmax values of receptor binding were determined by ^125I-[Sar^1, Ile^8] […] Membranes expressing the WT or mutant AT1 receptors were incubated with 100 pM ^125I-[Sar^1, Ile^8] […] The binding reaction was terminated by filtering the incubation mixture through Whatman GF/C glass filters, and the residues were extensively washed further with binding buffer. The bound ligand fraction was determined from the counts per minute (cpm) remaining on the membrane. Binding kinetics values were determined as previously described.

[2] = molecular target: T2, AT1 C76A/S109C/C289A mutant receptor (Rattus norvegicus, UniProt P25095, C289A/C76A/S109C); experiment: substituted cysteine accessibility mapping (SCAM), C76A/S109C/C289A; type: binding; set-up: key: Less and More indicate that the AT1 receptor is less or more accessible to the ligand pocket, respectively; Less and More indicate that the AT1 receptor is less or more accessible to the ligand pocket, respectively; No change; details: 1 µM ARB, […] MTSEA+, COS1 membranes
T2 construct: expressed in transfected cells; host or cells: COS1
T2 sequence (P25095 1-359 C76A/S109C/C289A): T1 sequence (P25095 1-359 A106G) with C76A, G106A, S109C, C289A
Description: (§1) As we reported previously, the percentage (%) inhibition of ^125I-[Sar^1, Ile^8] AngII binding by methanethiosulphonate ethyl-ammonium (MTSEA^+) reagent was approximately 30% on AT1 receptor, since Cys^76 in TM2 was accessible to water within the ligand pocket. In addition, mechanical stretching increased the accessibility of Cys^289 by inducing a change in the conformation of TM7 [22]. To differentiate between single and multiple movements of one or more native cysteines, we created TM3 residues that were substituted with cysteine one at a time from […] to Phe^117 using the C76A/C289A mutant genetic background and evaluated each triple mutant for MTSEA sensitivity.
(§2) Figure 3 Changes in cysteine accessibility in COS1 cells expressing C76A/C289A mutant receptors in which the transmenbrane 3 residues from Ala^106 to Phe^117, except for position 113, were successively replaced by cysteine. 1 µM of ARBs, n=4–9, *p<0.05 vs. no treatment. #p<0.05 vs. C76A/C289A.
(§3) The SCAM method has been used to probe relative changes in the conformation of constitutively active AT1 receptor [20]–[22] and other GPCRs, [30] by validating the presence of Cys residues within the ligand pocket. We used a highly reactive, sulfhydryl-specific reaction with methanethiosulfonyl ethyl-ammonium (MTSEA^+), which reacts a billion times faster with water-exposed and ionized Cys than with lipid-exposed and un-ionized Cys. In this reaction, a positively charged sulfonylmethylammonium group is added to a water-exposed Cys. Aliquots of cell membranes are incubated with or without ARBs for 20 min in phosphate buffer at room temperature. The membranes are then diluted with same buffer and centrifuged. After washout the cell membranes, the membranes are incubated with 2.5 mM MTSEA^+ at room temperature for 2 min in HEPES buffer (pH7.4). The Membranes are then diluted with same buffer to stop the reaction and centrifuged. One hundred µl aliquots were used to assay for ^125I-[Sar^1,Ile^8]Ang II binding. […]

[3] = molecular target: T3, AT1 C76A/F117C/C289A mutant receptor (Rattus norvegicus, UniProt P25095, C289A/C76A/F117C); experiment: substituted cysteine accessibility mapping (SCAM), C76A/F117C/C289A; type: binding; set-up: key: Less and More indicate that the AT1 receptor is less or more accessible to the ligand pocket, respectively; Less and More indicate that the AT1 receptor is less or more accessible to the ligand pocket, respectively; No change; details: 1 µM ARB, […] MTSEA+, COS1 membranes
T3 construct: expressed in transfected cells; host or cells: COS1 cells (membranes)
T3 sequence (P25095 1-359 C76A/F117C/C289A): T1 sequence (P25095 1-359 A106G) with C76A, G106A, F117C, C289A
Description: as §1, §2, §3

[4] = molecular target: T4, wild-type (WT) AT1 receptor (Rattus norvegicus, UniProt P25095); set-up: expressed in transfected cells; host or cells: COS1 cells; details: previously reported; cited from earlier work
T4 sequence (P25095 1-359): T1 sequence (P25095 1-359 A106G) with G106A

CCCc1nc(C(C)(C)O)c(C(=O)O)n1Cc1ccc(-c2ccccc2-c2nnn[nH]2)cc1 [Olmesartan, olmesartan, reference compound]
Kd ratio relative to WT (in parentheses) [1]: 2.6 fold
Kd [1]: 6.1 ± 2.2 nM
Cysteine accessibility at Ser109 compared to ligand (-) [2]: Less
Cysteine accessibility at Ser109 compared to ligand (-) ([2]; listed as olmesartan): less accessibility
Cysteine accessibility at Phe117 compared to ligand (-) [3]: More
Cysteine accessibility at Phe117 compared to ligand (-) ([3]; listed as olmesartan): greater accessibility
Pharmacological behaviour toward IP production [4]: inverse agonism

CCCc1nc(C(C)(C)O)c(C(N)=O)n1Cc1ccc(-c2ccccc2-c2nnn[nH]2)cc1 [R239470]
Kd ratio relative to WT (in parentheses) [1]: 6.0 fold
Kd [1]: 4.8 ± 1.5 nM
Cysteine accessibility at Ser109 compared to ligand (-) [2]: No change
Cysteine accessibility at Phe117 compared to ligand (-) [3]: No change
Pharmacological behaviour toward IP production [4]: neutral antagonist

CCCc1nc(C(C)(C)O)c(C(N)=O)n1Cc1ccc(-c2cc(Cc3ccc(O)cc3)ccc2-c2nnn[nH]2)cc1 [R794847]
Kd ratio relative to WT (in parentheses) [1]: 17 fold
Kd [1]: 792 ± 202 nM
